Test results taken from patent US6894053B2, “Serotonergic agents with long-acting in vivo effects” (Wyeth, priority 2001, dated 2005).
Where a name gives a salt, the structure may show the parent alone. One block for each compound: values may come before it.

Columns and labels:
5-HT1A [1] = target: T1, 5-HT1A (Rattus norvegicus, UniProt P19327); assay: Ex vivo binding of [3H]-WAY-100635: 5-HT1A receptor occupancy in rat brain; conditions: for [3H]-WAY-100635 remaining in membrane preparation: 3 mg/kg ip
T1 construct: from tissue; host or cells: rat brain (cortex and hippocampus membranes in the ex vivo assay; whole animal in the behavioural model)
T1 sequence (P19327 1-422): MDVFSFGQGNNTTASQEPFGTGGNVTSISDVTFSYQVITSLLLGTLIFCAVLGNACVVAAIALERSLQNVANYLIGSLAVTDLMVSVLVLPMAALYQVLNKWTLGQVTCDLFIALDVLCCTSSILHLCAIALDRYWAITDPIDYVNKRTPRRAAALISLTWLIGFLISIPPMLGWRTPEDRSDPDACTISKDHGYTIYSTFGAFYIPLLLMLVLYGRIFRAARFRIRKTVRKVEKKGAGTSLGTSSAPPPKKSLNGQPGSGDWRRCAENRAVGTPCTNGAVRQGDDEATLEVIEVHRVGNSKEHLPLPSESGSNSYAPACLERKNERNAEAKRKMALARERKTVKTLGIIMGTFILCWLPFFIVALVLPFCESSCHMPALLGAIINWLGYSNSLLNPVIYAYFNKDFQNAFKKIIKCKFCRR
Description: The serotonergic 5-HT1A receptor occupancy in vivo of the compounds of this invention was determined using ex vivo binding techniques. Rats were injected with a 3 mg/kg ip dose of Example 1 or vehicle and then sacrificed after 1, 24, 72, 168, and 336 hours. […] Tissue was prepared by homogenization and washed once with buffer. Serotonergic 5-HT1A receptors were measured in the membrane preparation using the standard 5-HT1A receptor antagonist [^3H]-WAY-100635 (85 Ci/mmol). Specific binding was determined in the presence of […] methiothepin. The ability of the test compounds to displace [^3H]-WAY-100635 from the 5-HT1A receptor was then determined and expressed as the fmol/mg protein of [^3H]-WAY-100635 remaining in the membrane preparation after treatment with the test compound.

5-HT1A [2] = target: T1, 5-HT1A; assay: Fixed Responding Model (fixed-ratio 30 food schedule), antagonism of 8-OH-DPAT; type: in vivo
Description: The ability of the compounds of this invention to function in vivo as 5-HT1A antagonists was assessed in rats using a Fixed Responding Model (Blackman, D., in, “Operant Conditioning: An Experimental Analysis of Behavior”, J. Butcher, Ed., Methuen and Co., Ltd., London). In this model rats are trained to respond (lever pressing) under a fixed-ratio 30 schedule of food presentation in order to receive a food pellet reinforcer. […] 5-HT1A antagonist activity is assessed by determining the test compound's ability to antagonize this decrease in response rate induced by administration of the agonist.

[3H]-WAY-100635 remaining in membrane preparation (5-HT1A [1]; 1 hour, cortex): 4.0 ± 0.1 fmol/mg protein
[3H]-WAY-100635 remaining in membrane preparation (5-HT1A [1]; 1 hour, striat.): 6.0 ± 0.3 fmol/mg protein
[3H]-WAY-100635 remaining in membrane preparation (5-HT1A [1]; 24 hour, cortex): 8.0 ± 0.6 fmol/mg protein
[3H]-WAY-100635 remaining in membrane preparation (5-HT1A [1]; 24 hour, striat.): 12.0 ± 2.7 fmol/mg protein
[3H]-WAY-100635 remaining in membrane preparation (5-HT1A [1]; 72 hours, cortex): 9.0 ± 0.6 fmol/mg protein
[3H]-WAY-100635 remaining in membrane preparation (5-HT1A [1]; 72 hours, striat.): 14.0 ± 2.3 fmol/mg protein
[3H]-WAY-100635 remaining in membrane preparation (5-HT1A [1]; 7 days, cortex): 7.0 ± 0.3 fmol/mg protein
[3H]-WAY-100635 remaining in membrane preparation (5-HT1A [1]; 7 days, striat.): 15.0 ± 1.7 fmol/mg protein
[3H]-WAY-100635 remaining in membrane preparation (5-HT1A [1]; 14 days, cortex): 11.0 ± 0.3 fmol/mg protein
[3H]-WAY-100635 remaining in membrane preparation (5-HT1A [1]; 14 days, striat.): 26.0 ± 0.6 fmol/mg protein
Duration of significant inhibition of WAY-100635 binding after a single administration (5-HT1A [1]; single administration, ex vivo binding): up to 14 days
Reversal of the effect of 8-OH-DPAT on response rate (5-HT1A [2]; 3 mg/kg sc vs 8-OH-DPAT 1 mg/kg sc): completely reverses
Response Rate (5-HT1A [2]; 8-OH-DPAT (1 mg/kg sc) + test compound 3 mg/kg sc): 2.4 ± 0.3 responses/second
Duration of significant inhibition of the 8-OH-DPAT-induced decrease in responding (5-HT1A [2]; single dose 3 mg/kg sc, daily 8-OH-DPAT 1 mg/kg sc): up to 17 days
Response Rate (5-HT1A [2]; single dose 3 mg/kg sc, daily 8-OH-DPAT 1 mg/kg sc, Day 1): 2.4 ± 0.3 responses/second
Response Rate (5-HT1A [2]; single dose 3 mg/kg sc, daily 8-OH-DPAT 1 mg/kg sc, Day 4): 2.1 ± 0.3 responses/second
Response Rate (5-HT1A [2]; single dose 3 mg/kg sc, daily 8-OH-DPAT 1 mg/kg sc, Day 7): 2.0 ± 0.3 responses/second
Response Rate (5-HT1A [2]; single dose 3 mg/kg sc, daily 8-OH-DPAT 1 mg/kg sc, Day 11): 1.8 ± 0.2 responses/second
Response Rate (5-HT1A [2]; single dose 3 mg/kg sc, daily 8-OH-DPAT 1 mg/kg sc, Day 14): 1.7 ± 0.3 responses/second
Response Rate (5-HT1A [2]; single dose 3 mg/kg sc, daily 8-OH-DPAT 1 mg/kg sc, Day 17): 1.0 ± 0.2 responses/second
Response Rate (5-HT1A [2]; single dose 3 mg/kg sc, daily 8-OH-DPAT 1 mg/kg sc, Day 21): 0.7 ± 0.2 responses/second
SMILES: COc1ccccc1N1CCN(C[C@@H](CC2CCCCC2)NC(=O)C2(C)CCCCC2)CC1 [Example 1, 1-Methyl-cyclohexanecarboxylic acid {(1R)-1-cyclohexylmethyl-2-[4-(2-methoxyphenyl)-piperazin-1-yl]-ethyl}-amide hydrochloride hydrate]

melting point: 119 to 121 °C
SMILES: COc1ccccc1N1CCN(C[C@@H](CC2CCCCC2)NC(=O)C2(C)CCCCC2)CC1 (as salt: hydrochloride) (hydrate or solvate) [Example 1, 1-Methyl-cyclohexanecarboxylic acid {(1R)-1-cyclohexylmethyl-2-[4-(2-methoxyphenyl)-piperazin-1-yl]-ethyl}-amide hydrochloride hydrate]
